“Also recorded” adds a separate entry of the source.
Tests used:
Assay type in all cases: in vivo, mouse
wild-type C57Bl/6 mice = assay: Open field test, off-target effects of AP in wild-type C57Bl/6 mice on HFD; details: AP 10 mg/kg i.p. 3 days every 2 weeks for 8 weeks
Method: For off target effect measurements db/db and HDF mice (fed with HFD for 2 months prior treatment) were injected intraperitoneally (i.p.) with […] at 10 mg/kg or vehicle for 3 days every 2 weeks for 8 weeks.
Locomotor activity and anxiety-like behavior of mice were assessed in sound-insulated, rectangular activity chambers (Med Associates Inc., St Albans, Vt., USA: W×L×D=27 cm×27 cm×20 cm with continually running fans, infrared lasers, and sensors). Beam breaks were assessed in 2-minute bins over 30 minutes, converted automatically to current mouse location and distance travelled (cm), and recorded on a computer with Med-PC software Version 4.0. Before the test, mice were acclimatized to the room for 1-1.5 hours before being introduced into the chambers. Mice were habituated for 5 minutes in the Open Field chamber (without recording) then placed for another 5 minutes in the home cage. Afterwards, mice were introduced back to the chambers and all mouse movements were recorded for 30 minutes. Anxiety was quantified by the distance mice travelled in the central 25% of the chamber (zone 1) as a function of the total distance mice travelled and by frequencies of entries into zone 1.

SASP factors = assay: Circulating cytokines in blood plasma, INK-ATTAC mice on HFD; details: HFD-fed INK-ATTAC mice; AP vs vehicle
Method: (§1) INK-ATTAC mice were injected intraperitoneally (i.p.) with AP20187 (10 mg/kg) or vehicle for 3 days every 2 weeks for a total of 8-10 weeks.
Serum levels of cytokines: Eotaxin, G-Csf, Tnf-α, Il-6, Ifn-γ, Il-1α, Il-1β, Il-17, Il-2, Kc/Cxcl1, Mcp-1, M-Csf, Mig, Mip-1α, and Mip-1β were determined using a Multiplexing LASER Bead Assay (Mouse Cytokine Array/Chemokine Array 31-Plex (MD31), Eve Technologies; Canada). Blood was withdrawn from mice by punctuation of the sub-mandibular vein at the day of dissection before an animal was sacrificed. 50 μL of serum were shipped to Eve Technologies on dry ice. Due to high variability of data an unbiased elimination of outliers was performed using ROUT's method (Graphpad 7 Prism). The same panel was used to detect SASP in MAF and 50 μl of media was shipped to Eve Technologies on dry ice.

[1] = system: senescent cells in the hypothalamus; assay: TAF in hypothalamus close to the 3rd ventricle, INK-ATTAC mice; details: HFD INK-ATTAC mice, AP20187 vs vehicle
Method: as §1
Paraffin sections were deparaffinized with Histoclear and hydrated in an ethanol gradient followed by water and PBS. Antigen was retrieved by incubation in 0.01M citrate buffer (pH 6.0) at 95° C. for 10 minutes. Slides were placed in blocking buffer (1:60 normal goat serum [S-1000, Vector Laboratories] in 0.1% BSA/PBS) for 60 minutes at room temperature. […] Primary antibodies used (Table 2) were diluted in blocking buffer and applied overnight at 4° C. The next day, slides were washed 3 times with PBS and incubated for 30 minutes with secondary goat, anti-rabbit antibody (1:200; Vector Laboratories #BA-1000) for TAF staining or for 60 minutes with secondary Alexa antibody (Table 1). For TAF staining, Fluorescein-Avidin in PBS (1:500; #A-2011, Vector Lab) was applied to each sample for 20 minutes. Slides were washed 3 times in PBS, which was followed by FISH for TAF detection. Briefly, tissues were crosslinked with 4% paraformaldehyde for 20 minutes and dehydrated in graded ethanol. Sections were denatured for 10 minutes at 80° C. in hybridization buffer (70% formamide (Sigma), 25 mM MgCl2, 0.1 M Tris (pH 7.2), and 5% blocking reagent [Roche]) containing 2.5 μg ml^−1 Cy-3-labelled telomere-specific (CCCTAA) peptide nucleic acid probe (Panagene), followed by hybridization for 2 hour at room temperature in the dark. Slides were washed twice with 70% formamide in 2×SSC for 15 minutes, followed by washes in 2×SSC and PBS for 10 minutes. Sections were mounted in Vectashield, DAPI-containing mounting media and imaged.
A single, 3 μm-thick section per mouse was used for TAF staining, while for Dcx and Plin2 staining was performed on three 10 μm-thick sections 80 μm-apart. To quantify periventricular lipid accumulation 10-30 images in the periventricular region were taken using the DM5500 widefield fluorescence microscope from Leica with a 10× (for frequency of periventricular glia) or ×40 (for ALISE phenotype of ependymal cells) objective lens. Number of Plin2-positive cells (for frequency of ALISE-positive periventricular glia) or area of Plin2-positive vesicles (for ALISE phenotype of ependymal cells) was assessed using ImageJ software. For identity assessment of Plin2+ cells, 10 μm-thick sections were stained with combination of antibodies for Iba1 (secondary antibody conjugated with Alexa Fluor 488), Plin2 (secondary antibody conjugated with Alexa Fluor 594), and Vimentin (secondary antibody conjugated with Alexa Fluor 647) and quantified for frequency of Plin2+ astrocytes (Iba1−, Vim+) and microglia (Iba1+) in the periventricular region. A separate staining for Plin2 (secondary antibody conjugated with Alexa Fluor 594) and NeuN (secondary antibody conjugated with Alexa Fluor 647) was used to determine frequency of Plin2+ neurons in periventricular region. For TAF quantification in depth Z stacking was used (images were captured as stacks separated by 0.4 μm with ×63 objective) followed by ImageJ analysis.

brain cell populations = assay: CyTOF of brain cell populations, INK-ATTAC mice; details: AP vs vehicle
Method: as §1
This technique uniquely combines time-of-flight mass spectrometry with metal-labelling technology to enable detection of up to 40 protein targets per cell. A panel of antibodies based on surface markers, transcription factors, and cytokines (see Table 1) was designed for brain mass cytometry/cytometry by time of flight (CyTOF). Each antibody was tagged with a rare metal isotope and its function verified by mass cytometry according to the factory manual (Multi Metal labelling Kits, Fluidigm, CA). A CyTOF-2 mass cytometer (Fluidigm, South San Francisco, Calif.) was used for data acquisition. Acquired data were normalized based on normalization beads (Ce140, Eu151, Eu153, Ho165, and Lu175). A single brain hemisphere was dissociated into a single-cell suspension using brain tissue dissociation kits (Adult Brain Dissociation Kit, Miltenyi Biotec Inc., CA). Collected cells were incubated with metal-conjugated antibodies and, for testing intracellular proteins, including transcription factors and cytokines, fixation and permeabilization was conducted according to the manufacturer's instructions (Transcription Factor Staining Buffer Set, eBioscience, San Diego, Calif.). CyTOF data were analyzed by Cytobank (Santa Clara, Calif.).

CC[C@H](C(=O)N1CCCC[C@H]1C(=O)O[C@H](CCc1ccc(OC)c(OC)c1)c1cccc(OCC(=O)NCC(CNC(=O)COc2cccc([C@@H](CCc3ccc(OC)c(OC)c3)OC(=O)[C@@H]3CCCCN3C(=O)[C@@H](CC)c3cc(OC)c(OC)c(OC)c3)c2)CN(C)C)c1)c1cc(OC)c(OC)c(OC)c1 [AP]
anxiety-like behavior in open field (distance in the center), off-target control (wild-type C57Bl/6 mice): no difference
G-Csf in the bloodstream (SASP factors): down-regulated
Il-1β in the bloodstream (SASP factors): down-regulated
Kc/Cxcl1 in the bloodstream (SASP factors): down-regulated
Mcp-1 in the bloodstream (SASP factors): down-regulated
Mig in the bloodstream (SASP factors): down-regulated
Tnf-α in the bloodstream (SASP factors): down-regulated
% of NeuN-neg cells with 2 or more TAF, hypothalamus close to the 3rd ventricle [1]: significant decrease
% of NeuN-pos cells with 2 or more TAF, hypothalamus close to the 3rd ventricle [1]: significant decrease
mean number of TAF in NeuN-neg cells, hypothalamus close to the 3rd ventricle [1]: significantly reduced
mean number of TAF in NeuN-pos cells, hypothalamus close to the 3rd ventricle [1]: significantly reduced
% of NeuN-neg cells with 2 or more TAF, hypothalamus close to the 3rd ventricle ([1]; listed as AP20187): significantly reduced
% of NeuN-pos cells with 2 or more TAF, hypothalamus close to the 3rd ventricle ([1]; listed as AP20187): significantly reduced
ependymal cells (CD133+), CyTOF (brain cell populations; HFD INK-ATTAC mice): significantly increased; also recorded: replenish
immature neurons (Dcx+), CyTOF (brain cell populations; HFD INK-ATTAC mice): significantly increased; also recorded: partial recovery
neuronal precursor cells (Nestin+), CyTOF (brain cell populations; HFD INK-ATTAC mice): replenish; also recorded: significantly increased
frequency of endothelial cells (CD146+), CyTOF (brain cell populations; INK-ATTAC mice): did not alter
frequency of mature neurons (NeuN+), CyTOF (brain cell populations; INK-ATTAC mice): did not alter
frequency of microglia (CD11b+, CD45-), CyTOF (brain cell populations; INK-ATTAC mice): did not alter
frequency of oligodendrocytes (CNPase+ or OSP+), CyTOF (brain cell populations; INK-ATTAC mice): did not alter
